Assay results as given in paper PMC8470770, “Characterization of a Primate Blood-Brain Barrier Co-Culture Model Prepared from Primary Brain Endothelial Cells, Pericytes and Astrocytes” (Pharmaceutics, 2021).
Like-named read-outs stand apart in the source and are kept apart here.

Columns and labels:
[1] = test system: primary triple co-culture monkey BBB model; conditions: cited from earlier work
SLC35F2 = test system: SLC35F2; parameters: method as in PMID 33144341; conditions: monkey BBB kit; famotidine as inhibitor; cited from earlier work
in vitro = conditions: cynomolgus monkey (Macaca fascicularis)
Description: To prepare the in vitro co-culture models (EPA), pericytes (2 × 10^4 cells/cm^2) were cultured on the bottom sides of collagen-coated culture inserts (Transwell clear, polyester membrane, 0.4 μm pore size, Corning Costar, NY, USA), and astrocytes (0.5 × 10^5 cell/cm^2) were seeded on the collagen-coated well of a 24-well culture plate. Cells were let to adhere overnight, and endothelial cells (2 × 10^5 cells/cm^2) were seeded on the inside of the inserts (top side of the membranes) and placed in the wells of the 24-well culture plates. An endothelial cell monolayer model (E00) was constructed by a similar method as the co-culture model, except for the procedure of seeding of pericytes and astrocytes. BBB models were maintained in RBEC medium supplemented with 550 nM hydrocortisone.
The permeability of the same 10 drugs was measured in the apical-to-basolateral (A-B) and basolateral-to-apical (B-A) directions as described in our previous study. All test compounds were dissolved in DMSO to yield a 10 mM solution, which was further diluted to 10 μM in HBSS-Hepes buffer (Hank’s Buffered Salt Solution containing 25 mM Hepes). […] The concentration of test compounds in the samples was determined by a Merck–Hitachi LaChrom HPLC with UV–VIS or a fluorescence detector (Merck, Darmstadt, Germany). […] Apparent permeability coefficients (Papp) were calculated using the following equation: Papp = (dQ/dT)/(A × C0), where dQ/dT is the cumulative amount in the receiver compartment versus time, A is the surface of the filter, and C0 is the initial concentration of the tracer in the luminal compartments.

[2] = test system: rat BBB co-culture model (EPA); parameters: method as in PMID 22906709; conditions: cited from earlier work; for Rat BBB Papp A-B: apical to basal; for Rat BBB Papp B-A: basal to apical
[3] = parameters: method as in PMID 22906709; conditions: cited from earlier work
[4] = test system: monkey co-culture BBB model (EPA); assay: Effect of TGF-β1 on barrier integrity (TEER) in monkey co-culture BBB model (EPA); assay type: cell-based, Macaca fascicularis; conditions: TGF-β1 1 ng/mL, 3, 6, and 12-h time points
Description: (§1) To evaluate the barrier function in different BBB models, transendothelial electrical resistance (TEER) was measured by an EVOM resistance meter and Endohm chamber (World Precision Instruments, Sarasota, FL, USA). The resistance values of blank inserts (background resistance) were subtracted from values of inserts with cells. TEER data are shown as Ω × cm^2. The permeability of sodium fluorescein (Na-F, MW: 376 Da) was also determined, and used as an index of paracellular transport. Cell culture inserts were transferred to 24-well plates containing 0.9 mL assay buffer (Dulbecco’s PBS (D-PBS) containing 0.9 mM CaCl2, 0.5 mM MgCl2, 4.5 g/L glucose, and 10 mM HEPES; pH 7.4). The luminal culture medium was replaced with 0.2 mL of assay buffer containing 10 μg/mL Na-F. Fifteen or 45 min after Na-F addition, the inserts were transferred to new wells containing the assay buffer. […] Transendothelial permeability coefficient (Pe) was calculated as previously described.

[5] = test system: P-glycoprotein (P-gp, ABCB1); assay: Bidirectional transport of rhodamine 123 across MBECs; conditions: 5 μM R123, 1 h, 37 °C; MBEC
Description: For bidirectional transport assay, the flux of 5 μM R123 in assay buffer was measured for 1 h at 37 °C in the luminal-to-abluminal and in the opposite abluminal-to-luminal directions. After measuring the R123 content in samples collected from both compartments, Pe values were calculated.

[6] = test system: receptors for advanced glycation end-product (RAGE); conditions: cited from earlier work
[7] = Sodium fluorescein permeability (Pe) of monkey BBB mono- and co-culture models; assay type: in vitro ADME; conditions: cynomolgus monkey (Macaca fascicularis), 10 μg/mL Na-F, read-out: endothelial permeability coefficient for sodium fluorescein (Na-F Pe)
Description: as §1

Compound: Cc1ccnc2c1NC(=O)c1cccnc1N2C1CC1 [nevirapine]
- mean Papp across the monkey BBB model [1]: 3.2e-05 cm/s

Compound: COCCn1c2c([n+](Cc3cnccn3)c1C)C(=O)c1ccccc1C2=O [YM155, sepantronium bromide]
- BBB permeability and intraendothelial accumulation (SLC35F2 substrate transport) (SLC35F2): famotidine-inhibitable BBB permeability and intraendothelial accumulation

Compound: COc1cc2c(cc1Cc1cccc(Cl)c1F)c(=O)c(C(=O)O)cn2[C@H](CO)C(C)C [elvitegravir]
- mean Papp across the monkey BBB model [1]: 1.86e-05 cm/s

Compound: CN/C(=N/CCSCc1nc[nH]c1C)NC#N [Cimetidine]
- Papp A→B at 10 μM (in vitro): 3 ×10⁻⁶ cm/s
- Papp B→A at 10 μM (in vitro): 2.88 ×10⁻⁶ cm/s
- efflux ratio at 10 μM (in vitro): 0.97
- Rat BBB Papp A-B [2]: 3.86 ×10⁻⁶ cm/s
- Rat BBB Papp B-A [2]: 2.8 ×10⁻⁶ cm/s
- Rat BBB Efflux Ratio [2]: 0.75
- Mouse In Vivo Papp [3]: 0.2 ×10⁻⁶ cm/s

Compound: C[C@H]1O[C@@H](O[C@H]2[C@@H](O)C[C@H](O[C@H]3[C@@H](O)C[C@H](O[C@H]4CC[C@@]5(C)[C@H](CC[C@@H]6[C@@H]5C[C@@H](O)[C@]5(C)[C@@H](C7=CC(=O)OC7)CC[C@]65O)C4)O[C@@H]3C)O[C@@H]2C)C[C@H](O)[C@@H]1O [Digoxin]
- Mouse In Vivo Papp [3]: 0.1 ×10⁻⁶ cm/s

Compound: C=C[C@H]1C[N@@]2CC[C@H]1C[C@@H]2[C@@H](O)c1ccnc2ccc(OC)cc12 [Quinidine]
- Rat BBB Papp A-B [2]: 6.28 ×10⁻⁶ cm/s
- Rat BBB Papp B-A [2]: 12.11 ×10⁻⁶ cm/s
- Mouse In Vivo Papp [3]: 1.69 ×10⁻⁶ cm/s

Compound: TGF-β1: cytokine transforming growth factor β1
- decrease in TEER values compared to medium treated group [4]: ~ 30%

Compound: O=c1c(O)c(-c2cc(O)c(O)c(O)c2)oc2cc(O)cc(O)c12 [myricetin]
- Papp in the monkey BBB model [1]: 2.5 ×10⁻⁶ cm/s

Compound: COC(=O)c1ccccc1-c1c2ccc(=N)cc-2oc2cc(N)ccc12 [R123, rhodamine 123]
- transport of R123 from brain side to blood side (B-A) versus opposite direction (A-B) [5]: almost four-fold higher

Compound: COc1ccc2c(c1)c(CC(=O)O)c(C)n2C(=O)c1ccc(Cl)cc1 [Indomethacin]
- Papp A→B at 10 μM (in vitro): 32.7 ×10⁻⁶ cm/s
- Papp B→A at 10 μM (in vitro): 39.1 ×10⁻⁶ cm/s
- efflux ratio at 10 μM (in vitro): 1.2
- Rat BBB Papp A-B [2]: 33.63 ×10⁻⁶ cm/s
- Rat BBB Papp B-A [2]: 44.07 ×10⁻⁶ cm/s
- Rat BBB Efflux Ratio [2]: 1.31
- Mouse In Vivo Papp [3]: 0.13 ×10⁻⁶ cm/s

Compound: oxytocin
- reduction of blood-to-brain direction transport when RAGE was silenced by shRNA [6]: approximately 70%

Compound: CC[C@]1(O)C[C@@H]2CN(CCc3c([nH]c4ccccc34)[C@@](C(=O)OC)(c3cc4c(cc3OC)N(C)[C@H]3[C@@](O)(C(=O)OC)[C@H](OC(C)=O)[C@]5(CC)C=CCN6CC[C@]43[C@@H]65)C2)C1 [Vinblastine]
- Papp A→B at 10 μM (in vitro): 1.47 ×10⁻⁶ cm/s
- Papp B→A at 10 μM (in vitro): 2.14 ×10⁻⁶ cm/s
- efflux ratio at 10 μM (in vitro): 1.46
- Rat BBB Papp A-B [2]: 2.42 ×10⁻⁶ cm/s
- Rat BBB Papp B-A [2]: 1.39 ×10⁻⁶ cm/s
- Rat BBB Efflux Ratio [2]: 0.69
- Mouse In Vivo Papp [3]: 1.43 ×10⁻⁶ cm/s

Compound: Cc1nnc(C(=O)NC(C)(C)c2nc(C(=O)NCc3ccc(F)cc3)c(O)c(=O)n2C)o1 [raltegravir]
- mean Papp across the monkey BBB model [1]: 1.02e-05 cm/s

Compound: CN(C)C(=O)C(CCN1CCC(O)(c2ccc(Cl)cc2)CC1)(c1ccccc1)c1ccccc1 [Loperamide]
- Rat BBB Papp A-B [2]: 15.57 ×10⁻⁶ cm/s
- Rat BBB Papp B-A [2]: 21.76 ×10⁻⁶ cm/s
- Mouse In Vivo Papp [3]: 1.05 ×10⁻⁶ cm/s

Compound: O=C1OC2(c3ccc(O)cc3Oc3cc(O)ccc32)c2ccccc21 [Na-F, sodium fluorescein]
- Papp at 10 μg/mL ([7]; pH 7.4, MBEC co-culture with rat pericytes (EP0)): 0.74 ± 0.06 ×10⁻⁶ cm/s
- Papp at 10 μg/mL ([7]; pH 7.4, MBEC co-culture with rat pericytes and astrocytes (EPA)): 0.69 ± 0.07 ×10⁻⁶ cm/s
- Papp at 10 μg/mL ([7]; pH 7.4, monolayer MBEC model (E00)): 2.44 ± 0.04 ×10⁻⁶ cm/s

Compound: Cn1c(=O)c2c(ncn2C)n(C)c1=O [Caffeine]
- Papp A→B at 10 μM (in vitro): 60.5 ×10⁻⁶ cm/s
- Papp B→A at 10 μM (in vitro): 65.2 ×10⁻⁶ cm/s
- mean Papp across the monkey BBB model [1]: 71.7 ± 3.2 × 10^−6 cm/s
- Rat BBB Papp A-B [2]: 64.95 ×10⁻⁶ cm/s
- Rat BBB Papp B-A [2]: 59.91 ×10⁻⁶ cm/s
- Mouse In Vivo Papp [3]: 11.11 ×10⁻⁶ cm/s

Compound: O=C1Nc2ccc(Cl)cc2[C@@](C#CC2CC2)(C(F)(F)F)O1 [efavirenz]
- mean Papp across the monkey BBB model [1]: 1.44e-05 cm/s
